Results: patent US12583834B2, “Method of treating bacterial infections and pharmaceutical composition for treating bacterial infections” (Institut National de Recherche pour l'Agriculture, …, priority 2020, dated 2026)
Entries after “also recorded” stand apart in the source; their conditions may differ.

Legend:
[1] = test system: Pseudomonas aeruginosa (CIP27853); assay: Survival of silkworm larvae infected with P. aeruginosa; type: in vivo; conditions: Bombyx mori larvae, P. aeruginosa 1×10^4 CFU, 0.3 to 5.5 μg/g injected with the bacteria, 24 h at 27° C.; effect at higher doses; FIG. 7
B. cereus (Bc 407) [2] = assay: Antimicrobial activity during nitric oxide stress, B. cereus; type: cell-based, Bacillus cereus; conditions: 4 h at 37° C. under nitric oxide stress, 10 to 200 μM, FIG. 3
Experimental: (§1) The power of compound (Ia) to inhibit bacterial growth, specifically in the presence of in vitro-produced nitric oxide, is measured for different bacterial species: Bacillus cereus and two antibiotherapy challenging bacteria, regarding medical interest and therapeutic needs, namely Klebsiella pneumoniae and Acinetobacter baumannii.
(§2) Gram-positive B. cereus (Bc 407) and Gram-negative K. pneumoniae (CIP700603) and A. baumannii (CIP7034) strains were grown to exponential phase in Luria-Bertani (LB) medium. Bacteria solution were prepared in Roswell Park Memorial Institute (RPMI) medium and 150 μL were dispatched into 96-wells plate. To measure effect of compound (Ia), bacteria were exposed to 50 μL of NO at a concentration that induces a survival below 90% compared to the condition without NO, in absence (0 μM) or presence (at a dose ranging from 10 to 200 μM) of compound (Ia).
(§3) Bacteria survival rate was quantified after 4 h at 37° C. by normalizing bacterial load in (Ia)-treated samples against that in DMSO-treated samples (0 μM of (Ia)).
(§4) The results obtained are shown in FIG. 3 for B. cereus, in FIG. 4 for K. pneumoniae and in FIG. 5 for A. baumanii. In these bar graphs the data represent the mean of duplicate experiment of N=3/12+/−SEM. Two-tailed t-student tests are employed to investigate statistical differences, using GraphPad Prism.

Mfd from E. coli = Mfd from E. coli (Escherichia coli, UniProt P30958); assay: Inhibition of Mfd ATPase activity in vitro (BIOMOL Green phosphate release); type: biochemical; conditions: for relative inhibition of E. coli Mfd ATPase activity with respect to the vehicle (DMSO): 100 μM compound, ATP 0.035 mM and 0.070 mM, FIG. 1
Sequence of Mfd from E. coli (P30958 whole entry): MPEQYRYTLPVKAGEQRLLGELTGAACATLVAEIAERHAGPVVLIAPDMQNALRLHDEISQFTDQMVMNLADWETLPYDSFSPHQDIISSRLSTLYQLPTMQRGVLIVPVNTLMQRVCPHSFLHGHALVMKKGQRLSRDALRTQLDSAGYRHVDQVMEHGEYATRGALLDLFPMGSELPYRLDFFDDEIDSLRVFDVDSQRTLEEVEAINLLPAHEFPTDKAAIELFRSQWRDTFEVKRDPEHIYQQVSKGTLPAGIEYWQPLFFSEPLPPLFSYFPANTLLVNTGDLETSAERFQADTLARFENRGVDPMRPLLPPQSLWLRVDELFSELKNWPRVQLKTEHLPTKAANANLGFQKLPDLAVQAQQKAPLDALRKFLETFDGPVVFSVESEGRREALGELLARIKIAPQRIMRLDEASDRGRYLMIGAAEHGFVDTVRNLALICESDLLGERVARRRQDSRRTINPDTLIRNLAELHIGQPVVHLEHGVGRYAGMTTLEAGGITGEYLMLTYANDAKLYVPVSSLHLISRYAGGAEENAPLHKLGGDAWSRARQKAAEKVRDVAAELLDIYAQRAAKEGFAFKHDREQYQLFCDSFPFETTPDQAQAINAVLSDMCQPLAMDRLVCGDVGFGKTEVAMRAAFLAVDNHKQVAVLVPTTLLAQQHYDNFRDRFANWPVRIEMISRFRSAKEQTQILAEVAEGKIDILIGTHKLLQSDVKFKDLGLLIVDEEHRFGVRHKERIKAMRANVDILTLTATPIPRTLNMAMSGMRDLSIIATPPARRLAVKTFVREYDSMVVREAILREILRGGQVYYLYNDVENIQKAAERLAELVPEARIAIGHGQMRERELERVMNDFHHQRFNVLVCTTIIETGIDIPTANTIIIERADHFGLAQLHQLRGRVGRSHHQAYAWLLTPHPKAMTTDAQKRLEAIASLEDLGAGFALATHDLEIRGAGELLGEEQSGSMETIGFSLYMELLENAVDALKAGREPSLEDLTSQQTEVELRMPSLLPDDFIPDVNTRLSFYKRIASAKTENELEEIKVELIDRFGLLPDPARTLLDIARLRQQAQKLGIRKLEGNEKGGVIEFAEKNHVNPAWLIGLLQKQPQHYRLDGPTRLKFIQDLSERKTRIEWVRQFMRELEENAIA
Experimental: Mfd enzyme activity was evaluated by measuring the quantity of inorganic phosphate (PO4i) released using BIOMOL® Green reagent microtiter-plate assay (Enzo Life Sciences). Mfd from E. coli (0.35 μM) was incubated with DMSO or with the tested compounds at a concentration of 100 μM in DMSO, for 10 min at 37° C. ATPase reaction was measured in Tris pH8 0.05M; NaCl 0.3M; DTT 0.002M; MgCl2 0.0025M; DMSO 2%; containing ATP (at different concentrations between 0.0022 and 0.279 mM) for 30 min at 37° C. 50 μL of each reaction medium was transferred into clear, flat-bottom 96-well plates and the reaction was terminated by the addition of 100 μl of BIOMOL® Green reagent. The absorbance at 620 nm was measured in a microplate reader (Tecan). The absorbance values were then transformed into nmols of PO4i released based on a PO4i standard curve prepared as recommended by the supplier.
The potency of each compound is calculated relative to the vehicle DMSO control. Each point is the mean of duplicate experiments of N=2+/−SEM (Standard error of the Mean).
Mfd ATPase activity at ATP concentrations ranging from 0 to 0.279 mM was measured in the same conditions as described above, without and with presence of various doses of compound (Ia): 0 μM, 3 μM, 10 μM, 30 μM, 65 μM and 100 μM. Curves were fit to the Michaelis-Menten equation with the GraphPad PRISM software. Results are the mean of duplicate experiment of N=3-10+/−SEM.

Bombyx mori larvae = assay: Toxicity towards silkworm larvae; type: in vivo; conditions: 0.3 to 5.5 μg/g injected
[3] = test system: K. pneumoniae (CIP700603); assay: Antimicrobial activity during nitric oxide stress, K. pneumoniae; type: cell-based, Klebsiella pneumoniae; conditions: 4 h at 37° C. under nitric oxide stress, 10 to 200 μM, FIG. 4
Experimental: as §1, §2, §3, §4

Bacillus cereus (Bc 407) = assay: Survival of silkworm larvae infected with B. cereus; type: in vivo; conditions: Bombyx mori larvae, B. cereus 1×10^2 CFU, 0.3 to 5.5 μg/g injected with the bacteria, 24 h at 27° C.; FIG. 6
B. cereus (Bc 407) [4] = assay: Mouse systemic infection model, B. cereus bacterial load in organs; type: in vivo, C57BL/6JRj mice; conditions: mice, B. cereus 4×10^6 CFU i.p., 12 mg/kg i.p., 6 h after infection; lung, liver and spleen; FIG. 8
Experimental: The efficiency of the compound of the invention (Ia) against a bacterial pathogen was assessed in a mouse model of infection (systemic infection model). Eight weeks old female C57BL/6JRj (Janvier Labs) mice were infected with B. cereus (Bc 407) (4×10^6 CFU) by intraperitoneal injection (100 μL). 100 μl of compound of the invention (Ia) in DMSO at a dose of 12 mg/kg, or of the vehicle alone (DMSO), were further injected to the mice by intraperitoneal injection. 6 h after the infection mice were sacrificed by cervical dislocation. Mice organs were collected and homogenized in cold Phosphate Buffered Saline (PBS). Bacteria burdens in organs were determined by plating serially dilution of the homogenate on LB agar media. The results obtained are shown on FIG. 8 in a/ for the lung, in b/ for the liver and in c/ for the spleen. In these figures, the data are represented as mean+/−SEM from 3 different experiments with 6-8 mice per group. Each point represents one animal.

A. baumannii (CIP7034) = assay: Antimicrobial activity during nitric oxide stress, A. baumannii; type: cell-based, Acinetobacter baumannii; conditions: A. baumanii, 4 h at 37° C. under nitric oxide stress, 10 to 200 μM; FIG. 5
Experimental: as §1, §2, §3, §4

Row | Structure (SMILES) | survival of infected larvae (protective effect) [1] | bacteria survival / resistance to NO in vitro (B. cereus (Bc 407) [2]) | mode of inhibition of Mfd ATPase activity (Mfd from E. coli; 0-100 μM (Ia), ATP 0 to 0.279 mM, Michaelis-Menten fit, FIG. 2) | relative inhibition of E. coli Mfd ATPase activity with respect to the vehicle (DMSO) (Mfd from E. coli) | toxicity towards the insects (Bombyx mori larvae) | bacteria survival / resistance to NO in vitro [3] | survival of infected larvae (protective effect) (Bacillus cereus (Bc 407)) | bacterial load in organs (B. cereus (Bc 407) [4]) | bacteria survival / resistance to NO in vitro (A. baumannii (CIP7034))
1 | CN(C)S(=O)(=O)c1ccc(S(=O)(=O)N2CCC(n3c(=O)[nH]c4ccccc43)CC2)cc1 [compound (Ia), N,N-dimethyl-4-{[4-(2-oxo-2,3-dihydro-1H-1,3-benzodiazol-1-yl)piperidin-1-yl]sulfonyl}benzene-1-sulfonamide] | significant protective effect | reduces bacteria resistance to NO in vitro | competitive inhibitor of Mfd ATPase activity | much higher capacity of inhibition of the Mfd ATPase activity than the comparative compounds; also recorded: more efficient than compound (Ib) | no toxicity towards the insects | reduces bacteria resistance to NO in vitro | significant protective effect | decreases the bacterial load in all these organs | reduces bacteria resistance to NO in vitro
2 | O=c1[nH]c2ccccc2n1C1CCN(c2ccc(S(=O)(=O)N3CCCCC3)cn2)CC1 [compound (Ib)] | – | – | – | much higher capacity of inhibition of the Mfd ATPase activity than the comparative compounds | – | – | – | – | –
